Assay results reported in ChEMBL document CHEMBL4613208, “Isatin derivatives and their anti-bacterial activities” (Eur J Med Chem, 2019).
≈ marks a conversion by molar mass, not a printed value.

Assays:
[1] = system: Staphylococcus aureus; assay: Antibacterial activity against Staphylococcus aureus by two-fold serial dilution technique; assay type: functional
[2] = system: Escherichia coli; assay: Antibacterial activity against Escherichia coli by two-fold serial dilution technique; assay type: functional
[3] = system: Pseudomonas aeruginosa; assay: Antibacterial activity against Pseudomonas aeruginosa by two-fold serial dilution technique; assay type: functional
[4] = system: Bacillus subtilis; assay: Antibacterial activity against Bacillus subtilis by two-fold serial dilution technique; assay type: functional
[5] = system: Staphylococcus epidermidis; assay: Antibacterial activity against Staphylococcus epidermidis after 24 hrs by paper disc diffusion technique; assay type: functional; settings: Staphylococcus epidermidis, 24 h
[6] = system: Pseudomonas aeruginosa; assay: Antibacterial activity against Pseudomonas aeruginosa after 24 hrs by paper disc diffusion technique; assay type: functional; settings: Pseudomonas aeruginosa, 24 h; read-out: MIC
[7] = system: Klebsiella pneumoniae; assay: Antibacterial activity against Klebsiella pneumoniae after 24 hrs by paper disc diffusion technique; assay type: functional; settings: Klebsiella pneumoniae, 24 h; read-out: MIC
[8] = system: Staphylococcus aureus; assay: Antibacterial activity against Staphylococcus aureus after 24 hrs by paper disc diffusion technique; assay type: functional; settings: Staphylococcus aureus, 24 h; read-out: MIC
[9] = system: Staphylococcus aureus; assay: Antibacterial activity against Staphylococcus aureus; assay type: functional, organism-based
[10] = system: Micrococcus luteus; assay: Antibacterial activity against Micrococcus luteus after 24 hrs by paper disc diffusion technique; assay type: functional; settings: Micrococcus luteus, 24 h
[11] = system: Salmonella typhi; assay: Antibacterial activity against Salmonella typhi; assay type: functional, Salmonella enterica subsp. enterica serovar Typhi; settings: Salmonella enterica
[12] = system: Pseudomonas aeruginosa; assay: Antibacterial activity against Pseudomonas aeruginosa; assay type: functional, organism-based
[13] = system: Escherichia coli; assay: Antibacterial activity against Escherichia coli; assay type: functional, organism-based
[14] = system: Escherichia coli; assay: Antibacterial activity against Escherichia coli after 24 hrs by paper disc diffusion technique; assay type: functional; settings: Escherichia coli, 24 h; read-out: MIC
[15] = system: Bacillus subtilis; assay: Antibacterial activity against Bacillus subtilis; assay type: functional
[16] = system: Escherichia coli; assay: Antibacterial activity against Escherichia coli ATCC 25922 after 24 hrs by agar well diffusion technique; assay type: functional; settings: ATCC 25922, 24 h
[17] = system: Staphylococcus aureus; assay: Antibacterial activity against Staphylococcus aureus ATCC 25923 after 24 hrs by agar well diffusion technique; assay type: functional; settings: ATCC 25923, 24 h
[18] = system: Shigella dysenteriae; assay: Antibacterial activity against Shigella dysenteriae after 24 hrs by agar well diffusion technique; assay type: functional
[19] = system: Bacillus cereus; assay: Antibacterial activity against Bacillus cereus after 24 hrs by agar well diffusion technique; assay type: functional

SMILES | MIC [1] [µg/mL] | MIC [2] [µg/mL] | MIC [3] [µg/mL] | MIC [4] [µg/mL] | MIC [6] [µg/mL] | MIC [7] [µg/mL] | MIC [8] [µg/mL] | MIC [14] [µg/mL] | MIC ([5]; read-out: MIC) [µg/mL] | MIC ([10]; read-out: MIC) [µg/mL] | other results
Cc1ccc2c(c1)/C(=N/NC(=O)N/N=C1\C(=O)Nc3ccc(C)cc31)C(=O)N2 | 6.25 to 100 (≈ 16.6 to 266 µM) | 6.25 to 100 (≈ 16.6 to 266 µM) | 6.25 to 100 (≈ 16.6 to 266 µM) | 6.25 to 100 (≈ 16.6 to 266 µM) | – | – | – | – | – | – | –
O=C(N/N=C1\C(=O)Nc2ccc(Cl)cc21)N/N=C1\C(=O)Nc2ccc(Cl)cc21 | 6.25 to 100 (≈ 15 to 240 µM) | 6.25 to 100 (≈ 15 to 240 µM) | 6.25 to 100 (≈ 15 to 240 µM) | 6.25 to 100 (≈ 15 to 240 µM) | – | – | – | – | – | – | –
O=C(O)c1cn(C2CC2)c2cc(N3CCNCC3)c(F)cc2c1=O [CIPROFLOXACIN] | – | – | – | – | 3.9 to 15.6 (≈ 11.8 to 47.1 µM) | 3.9 to 15.6 (≈ 11.8 to 47.1 µM) | 3.9 to 15.6 (≈ 11.8 to 47.1 µM) | 3.9 to 15.6 (≈ 11.8 to 47.1 µM) | – | – | MIC [5]: 3.9 to 15.6 µg/mL (≈ 11.8 to 47.1 µM); MIC [9]: < 5 µg/mL; MIC [10]: 3.9 to 15.6 µg/mL (≈ 11.8 to 47.1 µM); MIC [11]: 2 nM (≈ 0.663 ng/mL); MIC [12]: < 5 µg/mL; MIC [13]: < 5 µg/mL; MIC [15]: < 5 µg/mL
O=C(N/N=C1\C(=O)N(Cc2ccccc2)c2ccc(Cl)cc21)N/N=C1\C(=O)N(Cc2ccccc2)c2ccc(Cl)cc21 | 6.25 to 100 (≈ 10.5 to 167 µM) | 6.25 to 100 (≈ 10.5 to 167 µM) | 6.25 to 100 (≈ 10.5 to 167 µM) | 6.25 to 100 (≈ 10.5 to 167 µM) | – | – | – | – | – | – | –
O=C(O)c1cn(C2CC2)c2cc(N3CCN(CN4C(=O)/C(=N/c5ccc(/N=C/c6ccccc6)cc5)c5cc(F)ccc54)CC3)c(F)cc2c1=O | – | – | – | – | 7.81 to 125 (≈ 11.4 to 182 µM) | 7.81 to 125 (≈ 11.4 to 182 µM) | 7.81 to 125 (≈ 11.4 to 182 µM) | 7.81 to 125 (≈ 11.4 to 182 µM) | 7.81 to 125 (≈ 11.4 to 182 µM) | 7.81 to 125 (≈ 11.4 to 182 µM) | –
Cc1ccc2c(c1)/C(=N/NC(=O)N/N=C1\C(=O)N(Cc3ccccc3)c3ccc(C)cc31)C(=O)N2Cc1ccccc1 | 6.25 to 100 (≈ 11.2 to 180 µM) | 6.25 to 100 (≈ 11.2 to 180 µM) | 6.25 to 100 (≈ 11.2 to 180 µM) | 6.25 to 100 (≈ 11.2 to 180 µM) | – | – | – | – | – | – | –
O=C(O)c1cn(C2CC2)c2cc(N3CCN(CN4C(=O)/C(=N/c5ccc(/N=C/c6cccc([N+](=O)[O-])c6)cc5)c5cc(F)ccc54)CC3)c(F)cc2c1=O | – | – | – | – | 7.81 to 125 (≈ 10.7 to 171 µM) | 7.81 to 125 (≈ 10.7 to 171 µM) | 7.81 to 125 (≈ 10.7 to 171 µM) | 7.81 to 125 (≈ 10.7 to 171 µM) | 7.81 to 125 (≈ 10.7 to 171 µM) | 7.81 to 125 (≈ 10.7 to 171 µM) | –
Cc1c(C)c2c(c(C)c1O)CCC(C)(C(=O)N/N=C1\C(=O)N(C)c3ccccc31)O2 (configuration not stated) | – | – | – | – | – | – | – | – | – | – | MIC [9]: 12.5 to 100 µg/mL (≈ 30.7 to 245 µM); MIC [12]: 12.5 to 100 µg/mL (≈ 30.7 to 245 µM); MIC [13]: 12.5 to 100 µg/mL (≈ 30.7 to 245 µM)
COc1cc(/C=N/c2ccc(/N=C3/C(=O)N(CN4CCN(c5cc6c(cc5F)c(=O)c(C(=O)O)cn6C5CC5)CC4)c4ccc(F)cc43)cc2)cc(OC)c1OC | – | – | – | – | 7.81 to 125 (≈ 10.1 to 161 µM) | 7.81 to 125 (≈ 10.1 to 161 µM) | 7.81 to 125 (≈ 10.1 to 161 µM) | 7.81 to 125 (≈ 10.1 to 161 µM) | 7.81 to 125 (≈ 10.1 to 161 µM) | 7.81 to 125 (≈ 10.1 to 161 µM) | –
Cc1cc(NS(=O)(=O)c2ccc(/N=C3\C(=O)N(CO)c4ccccc43)cc2)no1 | – | – | – | – | – | – | – | – | – | – | MIC [16]: 1 to 15 µg/mL (≈ 2.42 to 36.4 µM); MIC [17]: 1 to 15 µg/mL (≈ 2.42 to 36.4 µM); MIC [18]: 1 to 15 µg/mL (≈ 2.42 to 36.4 µM); MIC [19]: 1 to 15 µg/mL (≈ 2.42 to 36.4 µM)
